In PubChem BioAssay (NCI):
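Test compounds were applied to cells in 96-well plates for 48 hours at 5 doses. TGI is the concentration that stops growth completely.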 Where a SMILES comes first, the peptide text is derived from it. The star is where a group is joined. Boc = CC(C)(C)OC(=O)*; OtBu = CC(C)(C)O*

What was measured:
Assay in all cases: NCI tumour cell line growth inhibition, 48 h
HOP-92 NSCLC = system: HOP-92 NSCLC
CAKI-1 renal = system: CAKI-1 renal
MALME-3M melanoma = system: MALME-3M melanoma
HOP-62 NSCLC = system: HOP-62 NSCLC
SF-539 CNS = system: SF-539 CNS
OVCAR-3 ovarian = system: OVCAR-3 ovarian
UACC-257 melanoma = system: UACC-257 melanoma
SNB-19 CNS = system: SNB-19 CNS
RPMI-8226 leukemia = system: RPMI-8226 leukemia
LOX IMVI melanoma = system: LOX IMVI melanoma

Row | Structure (SMILES) | TGI (HOP-92 NSCLC) | TGI (CAKI-1 renal) | TGI (MALME-3M melanoma) | TGI (HOP-62 NSCLC) | TGI (SF-539 CNS) | TGI (OVCAR-3 ovarian) | TGI (UACC-257 melanoma) | TGI (SNB-19 CNS) | TGI (RPMI-8226 leukemia) | TGI (LOX IMVI melanoma)
1 | CCOC(=O)c1cn2c(n1)sc1cc([N+](=O)[O-])ccc12 | > 100 µM | > 100 µM | > 100 µM | > 100 µM | > 100 µM | > 100 µM | > 100 µM | > 100 µM | > 100 µM | > 100 µM
2 | COc1nc2c(c(=O)[nH]1)N=C(c1ccc([N+](=O)[O-])cc1)CC(c1ccccc1)N2 (stereo not given) | > 100 µM | > 100 µM | > 100 µM | > 100 µM | > 100 µM | > 100 µM | > 100 µM | > 100 µM | > 100 µM | > 100 µM
3 | C(#C[C@@]12CCC[C@@H]1NCO2)c1ccc2c(c1)OCO2 | > 100 µM | > 100 µM | > 100 µM | > 100 µM | > 100 µM | > 100 µM | > 100 µM | > 100 µM | > 100 µM | > 100 µM
4 | Cc1cccc2c(=O)c3cccc(CC(=O)O)c3oc12 | > 100 µM | > 100 µM | > 100 µM | > 100 µM | > 100 µM | > 100 µM | > 100 µM | > 100 µM | > 100 µM | > 100 µM
5 | C/C(=C/C(=O)N(C)c1ccccc1Cl)O[Si](C(C)C)(C(C)C)C(C)C | 31.1 µM | > 100 µM | 51.5 µM | 74.4 µM | 38.3 µM | 33.5 µM | 66.4 µM | 64.5 µM | 63.9 µM | 33.2 µM
6 | O=c1oc2cc(O)ccc2c(O)c1C(c1ccc(/C=C/c2ccccc2)cc1)c1c(O)c2ccc(O)cc2oc1=O | > 100 µM | > 100 µM | > 100 µM | > 100 µM | > 100 µM | > 100 µM | > 100 µM | > 100 µM | > 100 µM | > 100 µM
7 | Cc1ccc(Nc2nc3ccccc3nc2NS(=O)(=O)c2ccc(N)cc2)cc1 | > 100 µM | > 100 µM | > 100 µM | > 100 µM | > 100 µM | > 100 µM | > 100 µM | > 100 µM | > 100 µM | > 100 µM
8 | CC(=O)OC1=C(c2ccccc2)S(=O)(=O)c2ccccc21 | > 100 µM | > 100 µM | > 100 µM | > 100 µM | > 100 µM | > 100 µM | > 100 µM | > 100 µM | > 100 µM | > 100 µM
9 | CC(C)CCNC(=O)c1ccc(CNC(=O)/C=C/c2ccc3c(c2)-c2ccccc2C3)cc1 | > 100 µM | 78.9 µM | 45.8 µM | 44.8 µM | > 100 µM | > 100 µM | > 100 µM | > 100 µM | > 100 µM | > 100 µM
10 | C[N+](C)(C)CC(=O)N/N=C\c1c(O)ccc2ccccc12 | 59.3 µM | > 100 µM | 38.3 µM | > 100 µM | > 100 µM | > 100 µM | > 100 µM | > 100 µM | > 100 µM | > 100 µM
11 | O=C(O)CN1CCN2CCOCCN(CC1)CCN(CC(=O)O)CC2 | > 100 µM | > 100 µM | > 100 µM | > 100 µM | > 100 µM | > 100 µM | > 100 µM | > 100 µM | > 100 µM | > 100 µM
12 | CCO/C=N\C1=C(C#N)SC2=N/C(=C\c3ccco3)C(=O)N21 | > 100 µM | > 100 µM | > 100 µM | > 100 µM | > 100 µM | > 100 µM | > 100 µM | > 100 µM | > 100 µM | > 100 µM
13 | COc1cc(/C=C(\C#N)C(=O)c2ccccc2)cc(OC)c1OC | > 100 µM | > 100 µM | > 100 µM | > 100 µM | > 100 µM | > 100 µM | > 100 µM | > 100 µM | > 100 µM | > 100 µM
14 | NCCCc1nonc1C(=O)O | > 100 µM | > 100 µM | > 100 µM | > 100 µM | > 100 µM | > 100 µM | > 100 µM | > 100 µM | > 100 µM | > 100 µM
15 | COC(=O)c1nc2n(n1)-c1ccccc1C(=O)N(Cc1ccccc1)C2 | > 100 µM | > 100 µM | > 100 µM | > 100 µM | > 100 µM | > 100 µM | > 100 µM | > 100 µM | > 100 µM | > 100 µM
16 | CCCCCCCCCCCCOC(=N)N1CCOCC1 | 13.8 µM | 17.3 µM | 34.5 µM | 33.3 µM | 19.1 µM | 30.3 µM | 23.9 µM | 35.5 µM | 5.15 µM | 34.4 µM
17 | Nc1nc(NCc2ccccc2)cc(NCc2ccccc2)n1 | 21.5 µM | 9.74 µM | 21.7 µM | 41.7 µM | 18.3 µM | 20.2 µM | 21.6 µM | 31 µM | 24.6 µM | 45 µM
18 | CCn1c(O)c(C(=O)Nc2cccs2)c(=O)n(CC)c1=S | 47.8 µM | 75.9 µM | 38.6 µM | 47.6 µM | 33.1 µM | 32.2 µM | 56 µM | 48 µM | 55.1 µM | 33.3 µM
19 | COc1ccc(CC(COS(=O)(=O)c2ccc(C)cc2)NS(=O)(=O)c2ccc(C)cc2)cc1 (stereo not given) | 19.9 µM | > 60.8 µM | 27.3 µM | 41.2 µM | > 100 µM | 27.8 µM | 67.1 µM | 32.6 µM | > 100 µM | > 100 µM
20 | CC(C)(C)OC(=O)CC(NC(=O)OC(C)(C)C)C(=O)NC(Cc1ccccc1)C(N)=O (stereo not given) (Boc-Asp(OtBu)-Phe-NH2; configuration not given here) | > 100 µM | > 100 µM | > 100 µM | > 100 µM | > 100 µM | > 100 µM | > 100 µM | > 100 µM | > 100 µM | > 100 µM
21 | CCOC(=O)c1c2ccccc2n2c(=O)n(-c3ccccc3)nnc12 | > 100 µM | > 100 µM | > 100 µM | > 100 µM | > 100 µM | > 100 µM | > 100 µM | > 100 µM | > 100 µM | > 100 µM
22 | COc1ccccc1Nc1nc(N)nc(N)c1N | > 100 µM | > 100 µM | > 100 µM | > 100 µM | > 100 µM | > 100 µM | > 100 µM | > 100 µM | 82.7 µM | 41.7 µM
23 | CN(C)CCCCN1c2ccccc2Sc2ccc(N=[N+]=[N-])cc21 | 13.4 µM | 18.4 µM | 3.17 µM | 25.1 µM | 16.8 µM | 20 µM | 3.54 µM | 23.5 µM | 5.45 µM | 5.77 µM
24 | COc1ccc(Cc2c3cc(OC)c(OC)cc3cc[n+]2C)cc1 | 58.7 µM | > 61.7 µM | > 60.3 µM | > 48.7 µM | > 53.1 µM | 36.2 µM | > 58.4 µM | > 31.4 µM | > 100 µM | > 24.7 µM
25 | COc1cc(CCNC2=CC(=O)c3ncccc3C2=O)ccc1O | 42.7 µM | 12 µM | 1.98 µM | 9.5 µM | 7.83 µM | 5.97 µM | 4.28 µM | 17.7 µM | 30.5 µM | 6.08 µM
26 | NS(=O)(=O)c1ccc(NCc2cccc3c(=O)c4ccc(Cl)cc4oc23)cc1 | 57 µM | > 85.7 µM | > 66.5 µM | > 100 µM | > 64.6 µM | > 100 µM | > 100 µM | > 61.8 µM | > 92.2 µM | > 100 µM
27 | CCOC(=O)n1c(=O)nc2c3c(ncn21)Oc1c(c(-c2ccccc2)nn1-c1ccccc1)C3c1ccc(Cl)cc1 (stereo not given) | 2.85 µM | 2.96 µM | 3.24 µM | 3.15 µM | 2.9 µM | 2.79 µM | 3.42 µM | 2.95 µM | 3.3 µM | 2.78 µM
28 | COC(=O)c1c(O)ccc2c1c1c(n2CCc2ccccc2)C(=O)c2ccccc2C1 | 30.9 µM | 45.6 µM | > 100 µM | 52.3 µM | 45.2 µM | 47.5 µM | 44 µM | 84.1 µM | 34 µM | > 100 µM
